Source: publication PMC11189555, “Aryl amino acetamides prevent Plasmodium falciparum ring development via targeting the lipid-transfer protein PfSTART1” (Nature Communications, 2024)

What was measured:
[1] = target: T1, recombinant PfSTART1(N330K) (I149-V394) (Plasmodium falciparum, UniProt Q8I298, N330K); assay: Isothermal titration calorimetry; assay type: binding; details: for Differential Power DP_Y / ΔH NDH_Y: PfSTART(N330K), ITC replicate data
T1 construct: 8xHis tag (N); TEV protease cleavage site (N); made in house; host or cells: Sf21 insect cells (baculovirus)
T1 sequence (Q8I298 149-394 N330K): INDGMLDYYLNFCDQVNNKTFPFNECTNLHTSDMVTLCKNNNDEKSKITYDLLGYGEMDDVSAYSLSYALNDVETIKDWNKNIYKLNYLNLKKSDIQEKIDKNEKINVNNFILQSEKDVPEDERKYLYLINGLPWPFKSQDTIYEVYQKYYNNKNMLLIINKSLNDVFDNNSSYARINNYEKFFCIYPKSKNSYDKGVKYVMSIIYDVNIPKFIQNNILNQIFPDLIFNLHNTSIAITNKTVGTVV
Source text: S. frugiperda codon optimised full-length N309K and N330K PfSTART1 mutants were first synthesised by Integrated DNA Technologies, and then I149 forward and V394 reverse primers utilised to clone the same I149-V394 construct boundaries into the modified pAcGP67a expression vector with a N-terminal GP67-signal sequence, 8xHis tag, and TEV protease cleavage site. As a result of the subcloning, SSG was removed upstream of the TEV cleavage site. Construct boundaries and incorporation of the N309K and N330K mutations was verified by Sanger sequencing. The PfSTART1 mutants were expressed and purified as per wild-type PfSTART1.
ITC experiments were performed on a MicroCal PEAQ-ITC calorimeter at 25 °C, with a stirring speed of 750 rpm and a reference power of 5 μcal/sec. 500 μM M-833 series inhibitor solutions were diluted to 10 μM in 50 mM NaPO4^-3 (pH 7.4), 150 mM NaCl with a final DMSO concentration of 2% (v/v) (cell sample). PfSTART1 protein was dialysed extensively against 50 mM NaPO4^-3 (pH 7.4), 150 mM NaCl, before diluting to 90 μM in the same buffer with 2% (v/v) DMSO (syringe sample). The first injection was 0.4 μL over a 0.8 s duration, and the remaining 19 injections were 2 μL of 4 s duration, with 150 s injection spacing. Data were collected and analysed using the PEAQ-ITC software (MicroCal) and fit by a single site binding model. A fitted offset (constant control heat) was also applied to the integrated heat.

PfSTART1 = target: T2, PfSTART1 (Plasmodium falciparum, UniProt Q8I298); assay type: binding; details: 100 µM W-991 vs DMSO; 7-25% AEF; p = 0.0014
T2 construct: endogenous in cells; host or cells: P. falciparum mature blood stages (30-42 hpi), soluble lysate
T2 sequence (Q8I298 entry or part of it): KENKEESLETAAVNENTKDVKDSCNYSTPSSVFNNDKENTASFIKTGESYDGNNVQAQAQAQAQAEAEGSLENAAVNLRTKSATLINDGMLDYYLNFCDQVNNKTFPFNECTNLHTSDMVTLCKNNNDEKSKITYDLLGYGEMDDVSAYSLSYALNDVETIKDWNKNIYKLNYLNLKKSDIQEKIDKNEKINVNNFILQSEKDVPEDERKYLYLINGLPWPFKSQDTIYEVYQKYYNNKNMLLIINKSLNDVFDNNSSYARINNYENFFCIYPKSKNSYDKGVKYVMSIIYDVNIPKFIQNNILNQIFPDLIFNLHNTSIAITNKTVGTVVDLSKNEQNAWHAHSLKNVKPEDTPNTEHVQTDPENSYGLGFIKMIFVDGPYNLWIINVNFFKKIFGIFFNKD
Description: The experiment was carried out in three biological replicates. Saponin-liberated mature parasite stages (30-42 hpi) were resuspended in PBS and lysed by 3x flash freeze/thawing using liquid N2, followed by 10 x mechanical sheering with a 29 G needle-syringe, and soluble protein isolation through ultracentrifugation (100,000 g; 20 min, 4 °C). Protein lysate was exposed to the 100 µM of W-991 or the vehicle control (DMSO) for 3 min and subsequently incubated with varying concentration of the solvent mixture ‘AEF’ (50% Acetone, 50% Ethanol, 0.1% Formate) to a final concentration of 7-25% (v/v) with 2% intervals, for 20 min at 37 °C at 800 rpm on a Thermomixer (Eppendorf). Denatured protein was pelleted through centrifugation (4 °C, 18,000 g, 20 min), and the soluble phase was recovered and pulled together in equivolume ratios into two samples; Gradient 1 ‘G1’: 7-15% EAF and Gradient 2 ‘G2’: 17-25% EAF, respectively. […]
Peptide samples were analysed on Orbitrap Eclipse Tribrid mass spectrometer that is interfaced with the Neo Vanquish liquid chromatography system. […] Subsequently, the differential abundance analysis (moderated t-test, based on limma package[81]) of P. falciparum proteins was conducted in the R environment (R version 4.2.0; R Studio Version 2023.12.1 + 402) using precursor normalised MaxLFQ data for proteins detected with ≥2 peptides. […]

Compound: CC(C)(Nc1ccc(Cl)c(S(=O)(=O)N2CCOCC2)c1)C(=O)Nc1ccc(F)c(Cl)c1 [W-991]
- interaction with PfSTART1(N330K) ([1]; ITC): no interaction
- Differential Power DP_Y ([1]; DP_X 0.083333): -0.001242
- Differential Power DP_Y ([1]; DP_X 0.1): -0.0011
- ΔH NDH_Y ([1]; NDH_X 0.104703): -2.588
- ΔH NDH_Y ([1]; NDH_X 0.192876): -2.749
- soluble protein level in the presence of compound (stabilisation) (PfSTART1): significantly (p < 0.01) increased levels
